Test [1] concerns mice treated with Mtox. Kind of test: Example 31: Mtox model of Parkinson's Disease. Format: in vivo, mouse. As to conditions: Mtox 10 mg/kg, three doses. As to the method: Three doses of Mtox (10 mg/kg) will be given to mice (n=12) 2 hours apart. Peptide conjugates, aromatic-cationic peptides, or SPN10(s) with or without aromatic-cationic peptides will be administered 30 minutes before each Mtox injection, and at 1 and 12 hours after the last Mtox injection. Animals will be sacrificed one week later and striatal brain regions will be immunostained for tyrosine hydroxylase activity. Levels of dopamine, DOPAC and HVA levels will be quantified by high pressure liquid chromatography.

For test [2], the system named is mitochondrial aconitase. Nature of the test: Example 53: mitochondrial aconitase activity in burn injury. To be noted: mouse, in vivo. The text has this:
Murine subjects will be subjected to burn injury or sham and administered peptide conjugates, aromatic-cationic peptides, SPN10(s) alone or in combination with aromatic-cationic peptides, or control vehicle as described above. Mitochondria will be isolated from burned and control tissues and mitochondrial aconitase activity assessed using a commercially available kit.

Test [3] has as its system Hairless mice. Kind of test: Example 50: sunburn by excessive UV radiation. Format: in vivo, mouse. To be noted: intravenously twice per day for seven days. The text has this: Hairless mice, with skin characteristics similar to humans, will be exposed to excessive UV radiation over the course of a week. […] Parameters measured will include wound contraction, re-epithelialization distance, cellularity, and collagen organization. Ki67 proliferation antigen will be assessed, as well as TUNEL and caspase-3 activation. Blood flow will be measured by […] mapping.

Test [4] concerns the target cytochrome c (Homo sapiens, UniProt P99999). Nature of the test: Kinetics of cytochrome c reduction (absorbance at 550 nm). Format: biochemical. The text has this: It is hypothesized that the distribution of SPN10(s) or peptide conjugates among the protein complexes in the IMM allows it to serve as additional an relay station to facilitate ET. […] Addition of N-acetylcysteine (NAC) as a reducing agent is anticipated to result in time-dependent increase in absorbance at 550 nm.

The subject of test [5] is Sprague Dawley rats. Kind of test: Renal ischemia/reperfusion, no-reflow zone in the kidney. The class given is in vivo, rat.
Test [6] concerns isolated mitochondria. Nature of the test: Example 12: MPT induced by Ca^2+ overload and 3NP in isolated mitochondria. As to the method:
3-Nitropropionic acid (3NP) is an irreversible inhibitor of succinate dehydrogenase in complex II of the electron transport chain. It is anticipated that the addition of 3NP (1 mM) to isolated mitochondria will cause the loss of mitochondrial membrane potential and the onset of MPT.

The subject of test [7] is isolated mitochondria. Nature of the test: Example 13: mitochondrial swelling (A540) and cytochrome c release (ELISA). The text has this:
MPT pore opening results in mitochondrial swelling. […] Mitochondrial suspensions will be centrifuged and the amount of cytochrome c in the pellet and supernatant will be determined using a commercially available ELISA kit.

Test [8] has as its system neonatal cardiomyocytes. Kind of test: Example 57: Ang II-induced mitochondrial ROS (Mitosox, flow cytometry). The class given is cell-based, mouse. As to conditions: Angiotensin II 1 μM, 3 hours. As to the method:
Ventricles from mouse neonates younger than 72 hours will be dissected, minced, and enzymatically digested with Blendzyme 4 (45 mg/mL, Roche). After enzymatic digestion, cardiomyocytes will be enriched using differential pre-plating for 2 hours, and seeded on fibronectin-coated culture dishes for 24 hours in DMEM (Gibco) with 20% Fetal Bovine Serum (Sigma) and 25 μM Arabinosylcytosine (Sigma). Cardiomyocytes will be stimulated with Angiotensin II (1 μM) for 3 hours in serum-free DMEM containing 0.5% insulin transferrin-selenium (Sigma), 2 mM glutamine, and 1 mg/mL BSA. […] Samples will be analyzed using excitation/emission of 488/625 nm by flow cytometry. Flow data will be analyzed using FCS Express (De Novo Software, Los Angeles, CA, U.S.A.), and presented as histogram distributions of Mitosox fluorescence intensity.
Background: In flow cytometry, cells or beads pass a laser one at a time.

Residues, ends and D or L forms follow the SMILES beside them.

cytochrome c, sequence (P99999 whole entry, species assumed): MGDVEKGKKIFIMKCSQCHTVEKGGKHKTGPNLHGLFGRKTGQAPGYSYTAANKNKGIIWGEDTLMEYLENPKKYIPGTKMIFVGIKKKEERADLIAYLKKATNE

Consider `N=C(N)NCCC[C@H](NC(=O)[C@@H](N)Cc1c[nH]c2ccccc12)C(=O)N[C@@H](Cc1c[nH]c2ccccc12)C(=O)N[C@@H](CCCCN)C(N)=O` [SPN10, H-L-Trp-L-Arg-L-Trp-L-Lys-NH2] (H-WRWK-NH2), for which, in test [1], the “loss of dopaminergic neurons” value is “dose-dependently prevent the loss of dopaminergic neurons”; the “striatal dopamine, DOPAC, and HVA levels” value was “dose-dependently increase striatal dopamine, DOPAC, and HVA levels”. The “mitochondrial aconitase activity after burn injury” value in test [2] is recorded as “reduce mitochondrial aconitase activity to sham control levels”. Further, the “wound healing and progression of sunburn injuries” value in test [3] is “accelerate wound healing and attenuate the progression of sunburn injuries”. For the same molecule, the “reduction of cytochrome c by compound alone” value in test [4] (100 μM, without NAC) was “will not reduce cytochrome c”. Moreover, the “rate of NAC-induced cytochrome c reduction” value in test [4] (with N-acetylcysteine (NAC)) is recorded as “dose-dependently increase”. Further, the “anatomic zone of no-reflow in the kidney” value in test [5] (30 minutes before ischemia and before reperfusion) is “prevent or reduce”. For the same molecule, the “one or more of BUN, serum creatinine, and glomerular filtration rate” value in test [5] (versus untreated control subjects) is given as “improve”. In addition, the “tolerance of mitochondria to cumulative Ca^2+ challenges” value in test [6] is given as “dose-dependently increase the tolerance”. Besides, the “onset of MPT after Ca^2+” value in test [6] (10 μM pre-treatment for 2 minutes prior to Ca^2+) is given as “prevent the onset of MPT”. The “onset of MPT induced by 3NP” value in test [6] (3NP 1 mM) is recorded as “dose-dependently delay the onset of MPT”. Further, the “mitochondrial swelling induced by MPP^+” value in test [7] was “prevent mitochondrial swelling”. Besides, the “swelling and cytochrome c release induced by Ca^2+ overload” value in test [7] (pre-treatment) is “inhibit swelling and cytochrome c release”. Also, the “Ang II-induced Mitosox fluorescence (mitochondrial ROS)” value in test [8] is “reduce Ang II-induced fluorescence to the level similar to that of saline-treated control cardiomyocytes”.

The values above are taken from US20240108740A1, “THERAPEUTIC COMPOSITIONS INCLUDING SPN10 AND USES THEREOF” (Stealth BioTherapeutics Inc., priority 2022, published 2024).
